The record followed here is patent publication US9284321B2, “Piperazino[1,2-a]indol-1-ones and [1,4]diazepino[1,2-a]indol-1-one” (Hoffmann-La Roche Inc., priority 2012, dated 2016).

Data set [1] concerns human embryonic stem cell derived neural stem cells (NSCs). The data set can be described thus: Neural Stem Cell Proliferation Assay (neurogenesis assay, ATP levels by CellTiterGlo). It is filed as cell-based. As to conditions: 96 h, compound concentration at which 150% activity of control (100%) is reached, NSC proliferation by ATP level after 4 days incubation, dose response 8 μM to 8 nM. On the procedure: Neurogenic properties of small molecules are determined based on the proliferation of human embryonic stem cell derived neural stem cells (NSCs) which were derived via a dual smad inhibition as previously described (Chambers, S. M., et al., Highly efficient neural conversion of human ES and iPS cells by dual inhibition of SMAD signaling, Nature biotechnology, 2009. 27(3): p. 275-80.)
Compounds respond is measured by the increase in cells based on ATP levels
(Promega:CellTiterGlo®) after an incubation period of 4 days.
NSCs are thawed and expanded over 3 passages. On the 14th day, NSCs are seeded in Polyornithin/Laminin coated 384 well plates at a cell density of 21′000 cells/cm^2 in a media volume of 38 μl.
4 hours after cell seeding, compound solutions are added at a volume of 2 μl. Stock solutions of the compounds (water, 5% DMSO) are diluted to obtain a dose response (11 points, dilution factor is 2), ranging from 8 μM to 8 nM. Controls are run to consistently determine the neurogenic properties of the cells:
Negative (neutral) control is cell culture Media (final DMSO concentration: 0.25%).
• 1. cell culture Media+100 ng/ml FGF2 (final DMSO concentration: 0.1%) • 2. cell culture Media+20 ng/ml EGF (final DMSO concentration: 0.1%) • 3. cell culture Media+100 ng/ml Wnt3a (final DMSO concentration: 0.1%)
After 4 days incubation at 37° C., 5% CO2, the amount of ATP per well is quantified. The ATP concentration is proportional to the cell number. ATP is quantified by using the Promega CellTiterGlo® kit. The CellTiterGlo® reagents contain a cell lysis buffer, a thermo stable luciferase (UltraGlo™ recombinant luciferase), magnesium and luciferin. Luciferin reacts with ATP producing oxyluciferin, AMP and light. The luminescence signal is proportional to the ATP content.
The value of negative (neutral) control is determined for each assay plate by taking the average of 16 negative control wells. The neurogenic compound response is calculated for each compound as (compound/Negative Control)*100.
The values of EC150 from the dose response curve are determined for each test compound. The EC150 is the compound concentration at which 150% activity of control (100%) is reached.
In general terms: ATP-based viability assays read luminescence as a measure of living cells.

For `O=C1NCCCn2c1cc1cc(Cl)cc(-c3ccc(F)cc3)c12` [Example 48, 9-Chloro-7-(4-fluoro-phenyl)-2,3,4,5-tetrahydro-[1,4]diazepino[1,2-a]indol-1-one], the melting point is 260 °C. Moreover, the EC (150% of control) in data set [1] was determined as 0.43 µM.

As for `O=C1NCCn2c1cc1cc(Cl)cc(-c3ccc(Cl)cc3)c12` [Example 49, 8-Chloro-6-(4-chloro-phenyl)-3,4-dihydro-2H-pyrazino[1,2-a]indol-1-one], the melting point was 320 °C. In data set [1], this molecule came in with an EC (150% of control) of 0.045 µM.

`O=C1NCCn2c1cc1cc(Cl)cc(-c3ccc(F)c(F)c3)c12` [Example 50, 8-Chloro-6-(3,4-difluoro-phenyl)-3,4-dihydro-2H-pyrazino[1,2-a]indol-1-one] yielded a melting point of 277.5 °C. The EC (150% of control) in data set [1] was 0.13 µM.

The molecule `O=C1NCCn2c1cc1cc(Cl)cc(-c3ccc(F)cc3)c12` [Example 51, 8-Chloro-6-(4-fluoro-phenyl)-3,4-dihydro-2H-pyrazino[1,2-a]indol-1-one] yielded a melting point of 298 °C. Besides, in data set [1], the EC (150% of control) is 0.098 µM.

With `COc1ccc(-c2cc(Cl)cc3cc4n(c23)CCNC4=O)cc1` [Example 52, 8-Chloro-6-(4-methoxy-phenyl)-3,4-dihydro-2H-pyrazino[1,2-a]indol-1-one], the melting point is 282.5 °C. The same molecule displayed an EC (150% of control) in data set [1] of 0.022 µM.

The molecule `O=C1NCCCn2c1cc1cc(Cl)cc(-c3ccc(Cl)cc3)c12` [Example 53, 9-Chloro-7-(4-chloro-phenyl)-2,3,4,5-tetrahydro-[1,4]diazepino[1,2-a]indol-1-one] displayed a melting point of 237 °C. The EC (150% of control) in data set [1] amounted to 0.15 µM.

On to `COc1ccc(-c2cc(Cl)cc3cc4n(c23)CCCNC4=O)cc1` [Example 54, 9-Chloro-7-(4-methoxy-phenyl)-2,3,4,5-tetrahydro-[1,4]diazepino[1,2-a]indol-1-one], for which the melting point was 218 °C. This molecule showed an EC (150% of control) in data set [1] of 0.07 µM.

Take `Cc1cc(-c2ccc(F)c(F)c2)c2c(c1)cc1n2CCCNC1=O` [Example 55, 7-(3,4-Difluoro-phenyl)-9-methyl-2,3,4,5-tetrahydro-[1,4]diazepino[1,2-a]indol-1-one]: the melting point worked out at 231 °C. Further, the EC (150% of control) in data set [1] came out at 2.8 µM.

In the case of `COc1ccc(-c2cc(C)cc3cc4n(c23)CCCNC4=O)cc1` [Example 56, 7-(4-Methoxy-phenyl)-9-methyl-2,3,4,5-tetrahydro-[1,4]diazepino[1,2-a]indol-1-one], the melting point stood at 208 °C. The molecule further displayed an EC (150% of control) in data set [1] of 0.35 µM.

On to `Cc1cc(-c2ccc(F)cc2)c2c(c1)cc1n2CCCNC1=O` [Example 57, 7-(4-Fluoro-phenyl)-9-methyl-2,3,4,5-tetrahydro-[1,4]diazepino[1,2-a]indol-1-one], for which the melting point is 234.5 °C. Moreover, in data set [1], the EC (150% of control) is 1.44 µM.

With `Cc1cc(-c2ccc(Cl)cc2)c2c(c1)cc1n2CCCNC1=O` [Example 58, 7-(4-Chloro-phenyl)-9-methyl-2,3,4,5-tetrahydro-[1,4]diazepino[1,2-a]indol-1-one], the melting point stood at 258.5 °C. Also, the EC (150% of control) in data set [1] was determined as 1.51 µM.

`Cc1cc(-c2ccc(Cl)cc2)c2c(c1)cc1n2CCNC1=O` [Example 59, 6-(4-Chloro-phenyl)-8-methyl-3,4-dihydro-2H-pyrazino[1,2-a]indol-1-one] registered a melting point of 269 °C. Also, in data set [1], the EC (150% of control) came to 0.18 µM.

Turning to `Cc1cc(-c2ccc(F)c(F)c2)c2c(c1)cc1n2CCNC1=O` [Example 60, 6-(3,4-Difluoro-phenyl)-8-methyl-3,4-dihydro-2H-pyrazino[1,2-a]indol-1-one], the melting point amounted to 249.5 °C. The EC (150% of control) in data set [1] was 0.71 µM.

Regarding `COc1ccc(-c2cc(C)cc3cc4n(c23)CCNC4=O)cc1` [Example 61, 6-(4-Methoxy-phenyl)-8-methyl-3,4-dihydro-2H-pyrazino[1,2-a]indol-1-one], the melting point amounted to 245 °C. The same molecule had an EC (150% of control) in data set [1] of 0.059 µM.

Molecule `Cc1cc(-c2ccc(F)cc2)c2c(c1)cc1n2CCNC1=O` [Example 62, 6-(4-Fluoro-phenyl)-8-methyl-3,4-dihydro-2H-pyrazino[1,2-a]indol-1-one] gave a melting point of 257 °C. The molecule also registered an EC (150% of control) in data set [1] of 0.32 µM.

In the case of `CN1CCn2c(cc3cc(F)cc(-c4ccc(F)cc4)c32)C1=O` [Example 63, 8-Fluoro-6-(4-fluoro-phenyl)-2-methyl-3,4-dihydro-2H-pyrazino[1,2-a]indol-1-one], the melting point was determined as 212 °C. Also, the EC (150% of control) in data set [1] turned out to be 0.6 µM.

`Cc1c2n(c3c(-c4ccc(F)c(F)c4)cc(Cl)cc13)CCNC2=O` [Example 64, 8-Chloro-6-(3,4-difluoro-phenyl)-10-methyl-3,4-dihydro-2H-pyrazino[1,2-a]indol-1-one] had a melting point of 235.5 °C. Besides, the EC (150% of control) in data set [1] turned out to be 0.12 µM.

In the case of `Cc1c2n(c3c(-c4ccc(Cl)cc4)cc(Cl)cc13)CCNC2=O` [Example 65, 8-Chloro-6-(4-chloro-phenyl)-10-methyl-3,4-dihydro-2H-pyrazino[1,2-a]indol-1-one], the melting point was 236.5 °C. The molecule further came in with an EC (150% of control) in data set [1] of 0.019 µM.

The molecule `Cc1c2n(c3c(-c4ccc(F)cc4)cc(Cl)cc13)CCNC2=O` [Example 66, 8-Chloro-6-(4-fluoro-phenyl)-10-methyl-3,4-dihydro-2H-pyrazino[1,2-a]indol-1-one] had a melting point of 227.5 °C. Further, the EC (150% of control) in data set [1] came out at 0.047 µM.

Consider `COc1ccc(-c2cc(Cl)cc3c(C)c4n(c23)CCNC4=O)cc1` [Example 67, 8-Chloro-6-(4-methoxy-phenyl)-10-methyl-3,4-dihydro-2H-pyrazino[1,2-a]indol-1-one], for which the melting point was 264 °C. In data set [1], this molecule showed an EC (150% of control) of 0.008 µM.

The molecule `Cc1c2n(c3c(-c4ccc(F)c(F)c4)cc(Cl)cc13)CCCNC2=O` [Example 68, 9-Chloro-7-(3,4-difluoro-phenyl)-11-methyl-2,3,4,5-tetrahydro-[1,4]diazepino[1,2-a]indol-1-one] gave a melting point of 254 °C. In addition, in data set [1], the EC (150% of control) is 0.12 µM.

The molecule `Cc1c2n(c3c(-c4ccc(Cl)cc4)cc(Cl)cc13)CCCNC2=O` [Example 69, 9-Chloro-7-(4-chloro-phenyl)-11-methyl-2,3,4,5-tetrahydro-[1,4]diazepino[1,2-a]indol-1-one] gave a melting point of 271 °C. The molecule also registered an EC (150% of control) in data set [1] of 0.061 µM.

For the molecule `Cc1c2n(c3c(-c4ccc(F)cc4)cc(Cl)cc13)CCCNC2=O` [Example 70, 9-Chloro-7-(4-fluoro-phenyl)-11-methyl-2,3,4,5-tetrahydro-[1,4]diazepino[1,2-a]indol-1-one], the melting point came to 260 °C. This molecule also showed an EC (150% of control) in data set [1] of 0.063 µM.

`COc1ccc(-c2cc(Cl)cc3c(C)c4n(c23)CCCNC4=O)cc1` [Example 71, 9-Chloro-7-(4-methoxy-phenyl)-11-methyl-2,3,4,5-tetrahydro-[1,4]diazepino[1,2-a]indol-1-one] showed a melting point of 240.5 °C. Besides, the EC (150% of control) in data set [1] is 0.021 µM.

Turning to `Cc1c2n(c3c(-c4ccc(F)c(F)c4)cc(F)cc13)CCNC2=O` [Example 72, 6-(3,4-Difluoro-phenyl)-8-fluoro-10-methyl-3,4-dihydro-2H-pyrazino[1,2-a]indol-1-one], the melting point was 229.5 °C. Further, the EC (150% of control) in data set [1] came out at 0.12 µM.

Consider `Cc1c2n(c3c(-c4ccc(Cl)cc4)cc(F)cc13)CCNC2=O` [Example 73, 6-(4-Chloro-phenyl)-8-fluoro-10-methyl-3,4-dihydro-2H-pyrazino[1,2-a]indol-1-one], for which the melting point was found to be 209.5 °C. Besides, in data set [1], the EC (150% of control) was 0.017 µM.

`Cc1c2n(c3c(-c4ccc(F)cc4)cc(F)cc13)CCNC2=O` [Example 74, 8-Fluoro-6-(4-fluoro-phenyl)-10-methyl-3,4-dihydro-2H-pyrazino[1,2-a]indol-1-one] returned a melting point of 182 °C. In data set [1], this molecule returned an EC (150% of control) of 0.072 µM.

Consider `COc1ccc(-c2cc(F)cc3c(C)c4n(c23)CCNC4=O)cc1` [Example 75, 8-Fluoro-6-(4-methoxy-phenyl)-10-methyl-3,4-dihydro-2H-pyrazino[1,2-a]indol-1-one], for which the melting point was 237 °C. This molecule also displayed an EC (150% of control) in data set [1] of 0.005 µM.

Take `N#Cc1cc(-c2ccc(F)c(F)c2)c2c(c1)cc1n2CCNC1=O` [Example 76, 6-(3,4-Difluoro-phenyl)-1-oxo-1,2,3,4-tetrahydro-pyrazino[1,2-a]indole-8-carbonitrile]: the melting point was determined as 289.5 °C. Besides, the EC (150% of control) in data set [1] was determined as 0.02 µM.

As usually defined, the melting point is the temperature, or range, at which the solid turns liquid.
